Test results taken from paper PMC6332427, “Drug Discovery of Host CLK1 Inhibitors for Influenza Treatment” (Molecules, 2015).
≈ marks a conversion by molar mass, not a printed value.

System: influenza virus A/PR/8/34 (H1N1)
Assay: organism not typed
Conditions: MDCK, 24 h, read-out: Simultaneous Treatment Assay EC50

| Molecule | EC50 |
| --- | --- |
| O=c1c(O)c(-c2ccc(O)cc2)oc2cc(O)cc(O)c12 [J10610, Kaempferol] | 12.3 ± 5.89 µg/mL (≈ 43.1 µM) |
| Cc1c([N+](=O)[O-])c(O)c([N+](=O)[O-])c2oc(=O)c(C(=O)Nc3cccc(C(=O)O)c3)cc12 [J11534] | > 30 µg/mL |
| O=C(O[C@@H]1Cc2c(O)cc(O)cc2O[C@@H]1c1cc(O)c(O)c(O)c1)c1cc(O)c(O)c(O)c1 [J14080, Epigallocatechin gallate] | 14.9 ± 1.81 µg/mL (≈ 32.4 µM) |
| O=c1cc(-c2ccc(O)c(O)c2)oc2cc(O)cc(O)c12 [J20725, Luteolin] | > 10 µg/mL |
| CCCOC(=O)c1cc(O)c(O)c(O)c1 [J25986, Propyl gallate] | 12.9 ± 8.06 µg/mL (≈ 60.7 µM) |
| NC(=O)c1ncn([C@@H]2O[C@H](CO)[C@@H](O)[C@H]2O)n1 [Ribavirin, reference compound] | 10.3 ± 2.38 µg/mL (≈ 42.3 µM) |

Same assay, conditions: MDCK, read-out: Post-Treatment Assay EC50

| Molecule | EC50 |
| --- | --- |
| O=c1c(O)c(-c2ccc(O)cc2)oc2cc(O)cc(O)c12 [J10610, Kaempferol] | 23.3 ± 1.08 µg/mL (≈ 81.4 µM) |
| Cc1c([N+](=O)[O-])c(O)c([N+](=O)[O-])c2oc(=O)c(C(=O)Nc3cccc(C(=O)O)c3)cc12 [J11534] | > 30 µg/mL |
| O=C(O[C@@H]1Cc2c(O)cc(O)cc2O[C@@H]1c1cc(O)c(O)c(O)c1)c1cc(O)c(O)c(O)c1 [J14080, Epigallocatechin gallate] | > 30 µg/mL |
| O=c1cc(-c2ccc(O)c(O)c2)oc2cc(O)cc(O)c12 [J20725, Luteolin] | 5.74 ± 0.54 µg/mL (≈ 20.1 µM) |
| CCCOC(=O)c1cc(O)c(O)c(O)c1 [J25986, Propyl gallate] | 3.42 ± 0.2 µg/mL (≈ 16.1 µM) |
| NC(=O)c1ncn([C@@H]2O[C@H](CO)[C@@H](O)[C@H]2O)n1 [Ribavirin, reference compound] | 13.8 ± 3.47 µg/mL (≈ 56.4 µM) |

Same assay, conditions: MDCK, read-out: Pre-Treatment Assay EC50

| Molecule | EC50 |
| --- | --- |
| O=c1c(O)c(-c2ccc(O)cc2)oc2cc(O)cc(O)c12 [J10610, Kaempferol] | 5.16 ± 2.4 µg/mL (≈ 18 µM) |
| Cc1c([N+](=O)[O-])c(O)c([N+](=O)[O-])c2oc(=O)c(C(=O)Nc3cccc(C(=O)O)c3)cc12 [J11534] | > 30 µg/mL |
| O=C(O[C@@H]1Cc2c(O)cc(O)cc2O[C@@H]1c1cc(O)c(O)c(O)c1)c1cc(O)c(O)c(O)c1 [J14080, Epigallocatechin gallate] | 10.2 ± 6.22 µg/mL (≈ 22.2 µM) |
| O=c1cc(-c2ccc(O)c(O)c2)oc2cc(O)cc(O)c12 [J20725, Luteolin] | > 10 µg/mL |
| CCCOC(=O)c1cc(O)c(O)c(O)c1 [J25986, Propyl gallate] | 15.9 ± 6.94 µg/mL (≈ 75.1 µM) |
| NC(=O)c1ncn([C@@H]2O[C@H](CO)[C@@H](O)[C@H]2O)n1 [Ribavirin, reference compound] | 4.36 ± 0.99 µg/mL (≈ 17.9 µM) |

System: CLK1
Assay: not given
Conditions: cited from earlier work

| Molecule | IC50 |
| --- | --- |
| c1csc(CNc2ncnc3ccc(-c4ccc5c(c4)OCO5)cc23)c1 [NCGC00010037] | 0.037 µM |

System: influenza virus A/PR/8/34 (H1N1)
Assay: not given
Conditions: not given

| Molecule | Post-Treatment Assay EC50 | Pre-Treatment Assay EC50 | Simultaneous Treatment Assay EC50 |
| --- | --- | --- | --- |
| Hispidulin [J20353] | >30 µg/mL | 18.89 ± 5.1 µg/mL | 5.26 ± 2.48 µg/mL |

Same assay, conditions: H1N1 (MOI 0.01) incubated with MDCK cells 2 h, then compound; 24 h; mean ± SD

| Molecule | Post-Treatment Assay EC50 |
| --- | --- |
| Chebulanin [J12133] | 21.11 ± 11.15 µg/mL |

Same assay, conditions: H1N1 (MOI 0.01) pre-incubated with compound 2 h at 37 °C before addition to MDCK cells; 24 h; mean ± SD

| Molecule | Pre-Treatment Assay EC50 |
| --- | --- |
| Chebulanin [J12133] | 15.29 ± 10.35 µg/mL |

Same assay, conditions: compound added along with H1N1 (MOI 0.01) to MDCK cells; 24 h; mean ± SD

| Molecule | Simultaneous Treatment Assay EC50 |
| --- | --- |
| Chebulanin [J12133] | 9.84 ± 0.44 µg/mL |

Same assay, conditions: post-treatment, MDCK, H1N1

| Molecule | Post-Treatment Assay SI (selective index, CC50/EC50) |
| --- | --- |
| Chebulanin [J12133] | 4.28 |

Same assay, conditions: pre-treatment, MDCK, H1N1

| Molecule | Pre-Treatment Assay SI (selective index, CC50/EC50) |
| --- | --- |
| Chebulanin [J12133] | 5.90 |

Same assay, conditions: simultaneous treatment, MDCK, H1N1

| Molecule | Simultaneous Treatment Assay SI (selective index, CC50/EC50) |
| --- | --- |
| Chebulanin [J12133] | 9.17 |

Molecular target: T1, recombinant human CLK1 (Homo sapiens, UniProt P49759)
T1 construct: The primer of human full length CLK1 gene was as follows; made in house; host or cells: Sf9 insect cells (baculovirus, pFastBac1)
Assay: CLK1 inhibitory assay (Kinase-Glo luminescent kinase assay, MBP substrate)
Format: biochemical
Conditions: Figure 6, Kinase-Glo assay; read-out: IC50 (converted)
Method: The optimal conditions were dependent on the largest change in luminescence when comparing kinase reaction wells with control wells.
The kinase assay in this study utilized appropriate concentration of recombinant purified protein CLK1 in the presence of MBP as the substrate, MgCl2, MnCl2, ATP in kinase buffer (10 mM Tris, 1 mM EGTA, 100 μM sodium orthovanadate, 10 μM p-nitrophenyl phosphate (PNP), pH7.4) in a reaction volume of 20 μL. The reaction system were incubated at 25 °C for appropriate time. The Kinase-Glo® Luminescent Kinase Assay Platform was used to measure kinase activity by quantitating the amount of ATP, the signals of which were recorded using PerkinElmer’s EnSpire Multilabel Plate Reader. All the above components were added to the plate by automatic dispenser (EDR-384S, BioTec, Tokyo, Japan). A series of parameters containing the amount of kinase (1.16–298 ng/mL), MBP (3.125–150 μg/mL), ATP (0.1–100 μM), Mg^2+ (0.01–100 mM), Mn^2+ (0.5–20 mM), the percentage of DMSO (0.03%–10%), reaction time and temperature were optimized respectively in order to get best performance. Z′ factor values was calculated as described.
The inhibition percentage of the compounds against CLK1 were calculated according to the formula: (1) inhibition%=[(RLUsample−RLUpositive)/(RLUnegative−RLUpositive)]×100% where the RLUsample, RLUpositive, RLUnegative are the measured RLU values with treatment of test compounds, the wells free of test compounds, and that of without kinase, respectively.

T1 sequence (P49759 whole entry): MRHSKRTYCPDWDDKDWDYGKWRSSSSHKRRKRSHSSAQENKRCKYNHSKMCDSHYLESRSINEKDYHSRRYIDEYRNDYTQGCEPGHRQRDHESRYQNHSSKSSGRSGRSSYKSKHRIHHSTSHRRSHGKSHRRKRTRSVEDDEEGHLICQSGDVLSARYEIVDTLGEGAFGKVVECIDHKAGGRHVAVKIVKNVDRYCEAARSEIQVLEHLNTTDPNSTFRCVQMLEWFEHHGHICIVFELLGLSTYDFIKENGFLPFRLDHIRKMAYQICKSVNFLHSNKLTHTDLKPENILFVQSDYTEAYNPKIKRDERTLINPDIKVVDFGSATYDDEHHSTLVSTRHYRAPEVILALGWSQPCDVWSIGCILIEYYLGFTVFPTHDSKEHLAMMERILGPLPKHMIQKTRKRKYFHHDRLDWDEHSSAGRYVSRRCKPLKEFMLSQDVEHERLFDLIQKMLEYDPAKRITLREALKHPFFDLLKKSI

| Molecule | IC50 |
| --- | --- |
| O=c1c(O)c(-c2ccc(O)cc2)oc2cc(O)cc(O)c12 [J10610, Kaempferol] | 6.01 µM |

Same assay, conditions: IC50, Kinase-Glo assay

| Molecule | IC50 |
| --- | --- |
| Cc1c([N+](=O)[O-])c(O)c([N+](=O)[O-])c2oc(=O)c(C(=O)Nc3cccc(C(=O)O)c3)cc12 [J11534] | < 116 µM |
| O=C(O[C@@H]1Cc2c(O)cc(O)cc2O[C@@H]1c1cc(O)c(O)c(O)c1)c1cc(O)c(O)c(O)c1 [J14080, Epigallocatechin gallate] | < 109 µM |

Same assay, conditions: Kinase-Glo assay

| Molecule | IC50 |
| --- | --- |
| Chebulanin [J12133] | lower than 50 μg/mL |
| Hispidulin [J20353] | lower than 50 μg/mL |

Same assay, conditions: Kinase-Glo assay; read-out: IC50 (converted)

| Molecule | IC50 |
| --- | --- |
| O=c1c(O)c(-c2ccc(O)cc2)oc2cc(O)cc(O)c12 [J10610, Kaempferol] | < 175 µM |
| O=c1cc(-c2ccc(O)c(O)c2)oc2cc(O)cc(O)c12 [J20725, Luteolin] | < 175 µM |
| CCCOC(=O)c1cc(O)c(O)c(O)c1 [J25986, Propyl gallate] | < 236 µM |

System: influenza virus A/PR/8/34 (H1N1)
Assay: in vitro
Conditions: Post-Treatment Assay SI (selective index, CC50/EC50)

| Molecule | selectivity ratio |
| --- | --- |
| O=c1c(O)c(-c2ccc(O)cc2)oc2cc(O)cc(O)c12 [J10610, Kaempferol] | 2.94 |

Same assay, conditions: Post-Treatment Assay SI (selective index, CC50/EC50), post-treatment, MDCK, H1N1

| Molecule | selectivity ratio at 24 h |
| --- | --- |
| O=c1cc(-c2ccc(O)c(O)c2)oc2cc(O)cc(O)c12 [J20725, Luteolin] | 4.33 |
| CCCOC(=O)c1cc(O)c(O)c(O)c1 [J25986, Propyl gallate] | 53.2 |

Same assay, conditions: Pre-Treatment Assay SI (selective index, CC50/EC50)

| Molecule | selectivity ratio |
| --- | --- |
| O=c1c(O)c(-c2ccc(O)cc2)oc2cc(O)cc(O)c12 [J10610, Kaempferol] | 13.3 |

Same assay, conditions: Pre-Treatment Assay SI (selective index, CC50/EC50), pre-treatment, MDCK, H1N1

| Molecule | selectivity ratio at 24 h |
| --- | --- |
| CCCOC(=O)c1cc(O)c(O)c(O)c1 [J25986, Propyl gallate] | 11.4 |

Same assay, conditions: Simultaneous Treatment Assay SI (selective index, CC50/EC50)

| Molecule | selectivity ratio |
| --- | --- |
| O=c1c(O)c(-c2ccc(O)cc2)oc2cc(O)cc(O)c12 [J10610, Kaempferol] | 5.55 |

Same assay, conditions: Simultaneous Treatment Assay SI (selective index, CC50/EC50), simultaneous treatment, MDCK, H1N1

| Molecule | selectivity ratio at 24 h |
| --- | --- |
| CCCOC(=O)c1cc(O)c(O)c(O)c1 [J25986, Propyl gallate] | 14.1 |

System: MDCK cells
Assay: Cytotoxicity assay in MDCK cells (MTT, 72 h)
Conditions: MDCK cells

| Molecule | concentration above which toxic effects occur |
| --- | --- |
| O=c1cc(-c2ccc(O)c(O)c2)oc2cc(O)cc(O)c12 [J20725, Luteolin] | above 10 μg/mL |

Same assay, conditions: MDCK cells, 72 h, MTT

| Molecule | CC50 (50% cytotoxic concentration) |
| --- | --- |
| Chebulanin [J12133] | 90.27 µg/mL |
| Hispidulin [J20353] | 60.35 µg/mL |

Same assay, conditions: MDCK cells, 72 h, MTT; more than 90% cells viable

| Molecule | CC0 (maximal non-cytotoxic concentration) |
| --- | --- |
| O=c1c(O)c(-c2ccc(O)cc2)oc2cc(O)cc(O)c12 [J10610, Kaempferol] | 30 µg/mL |
| Cc1c([N+](=O)[O-])c(O)c([N+](=O)[O-])c2oc(=O)c(C(=O)Nc3cccc(C(=O)O)c3)cc12 [J11534] | 30 µg/mL |
| O=C(O[C@@H]1Cc2c(O)cc(O)cc2O[C@@H]1c1cc(O)c(O)c(O)c1)c1cc(O)c(O)c(O)c1 [J14080, Epigallocatechin gallate] | 30 µg/mL |
| O=c1cc(-c2ccc(O)c(O)c2)oc2cc(O)cc(O)c12 [J20725, Luteolin] | 10 µg/mL |
| CCCOC(=O)c1cc(O)c(O)c(O)c1 [J25986, Propyl gallate] | 30 µg/mL |
| Chebulanin [J12133] | 30 µg/mL |
| Hispidulin [J20353] | 30 µg/mL |

System: not listed separately
Assay: Cytotoxicity assay in MDCK cells (MTT, 72 h)
Conditions: dog

| Molecule | CC50 at 72 h |
| --- | --- |
| Cc1c([N+](=O)[O-])c(O)c([N+](=O)[O-])c2oc(=O)c(C(=O)Nc3cccc(C(=O)O)c3)cc12 [J11534] | 175 µg/mL (≈ 408 µM) |
| O=C(O[C@@H]1Cc2c(O)cc(O)cc2O[C@@H]1c1cc(O)c(O)c(O)c1)c1cc(O)c(O)c(O)c1 [J14080, Epigallocatechin gallate] | 71.1 µg/mL (≈ 155 µM) |
| NC(=O)c1ncn([C@@H]2O[C@H](CO)[C@@H](O)[C@H]2O)n1 [Ribavirin, reference compound] | > 200 µg/mL |

Same assay, conditions: dog, MDCK cells

| Molecule | CC50 at 72 h |
| --- | --- |
| O=c1c(O)c(-c2ccc(O)cc2)oc2cc(O)cc(O)c12 [J10610, Kaempferol] | 68.5 µg/mL (≈ 239 µM) |
| O=c1cc(-c2ccc(O)c(O)c2)oc2cc(O)cc(O)c12 [J20725, Luteolin] | 24.9 µg/mL (≈ 86.9 µM) |
| CCCOC(=O)c1cc(O)c(O)c(O)c1 [J25986, Propyl gallate] | 182 µg/mL (≈ 858 µM) |
